The series relates to cold sores. It counts as in vivo, human.

Regarding `Nc1nc2c(ncn2COCCO)c(=O)[nH]1` [acyclovir], the “response of cold sores to treatment” value (Example 3, person, history, oral and topical) is on record as “unresponsiveness”. The side effects entry (human, in vivo, po) is “dizziness”.

The record behind these values is patent US11191795B2, “Herbal compositions and methods for treating herpes” (priority 2019, dated 2021).
